One compound from patent US10584283B2, “Preservative for technical products” (Schülke & Mayr GmbH, priority 2015, dated 2020) can be followed below.

The nature of the data set: Storage stability in polyethylene bottles, Experiment 6 (other alkalizing agents). It is filed as physicochemical. How it is done:
It was also investigated whether the stabilization achieved according to the invention with the particularly preferred agent MIPA is also achieved with other alkalizing agents.
Samples of the solutions were stored in bottles made of polyethylene at −5° C., 25° C. and 40° C. in order to investigate the stability.

Molecules are shown by their SMILES.

On to `CCCCCCCCCCCCN(CCCN)CCCN` [N,N-bis(3-aminopropyl)-dodecylamine], for which the “Storage stability / compatibility (conclusion in words)” value was “incompatible with TTT”.
